Data from the kinase profiling compilation of Christmann-Franck et al. (2016).

How the values were obtained:
Assay in all cases: KINOMEscan competition binding
Conditions in all cases: compound 10.0 µM
GRK4 (human) = GRK4 (human) (UniProt P32298)
BRAF (human) = BRAF (human) (UniProt P15056)
MET (human) = MET (human) (UniProt P08581)
SIK3 (human) = SIK3 (human) (UniProt Q9Y2K2)
CDK13 (human) = CDK13 (human) (UniProt Q14004)
[1] = test system: PIK3CA (human), P42336 [H1047Y]
PLK2 (human) = PLK2 (human) (UniProt Q9NYY3)
[2] = test system: PIK3CA (human), P42336 [Q546K]
STK39 (human) = STK39 (human) (UniProt Q9UEW8)
MAP3K2 (human) = MAP3K2 (human) (UniProt Q9Y2U5)
NIM1 (human) = NIM1 (human) (UniProt Q8IY84)
PRKCI (human) = PRKCI (human) (UniProt P41743)
IRAK4 (human) = IRAK4 (human) (UniProt Q9NWZ3)
TAOK2 (human) = TAOK2 (human) (UniProt Q9UL54)
MAP3K1 (human) = MAP3K1 (human) (UniProt Q13233)
MAP3K15 (human) = MAP3K15 (human) (UniProt Q6ZN16)
MAP3K13 (human) = MAP3K13 (human) (UniProt O43283)
PIK3C2G (human) = PIK3C2G (human) (UniProt O75747)
[3] = test system: EGFR (human), P00533 [G719S]
[4] = test system: PIK3CA (human), P42336 [I800L]
SGK3 (human) = SGK3 (human) (UniProt Q96BR1)
EGFR (human) = EGFR (human) (UniProt P00533)
PIK3CG (human) = PIK3CG (human) (UniProt P48736)
DYRK1A (human) = DYRK1A (human) (UniProt Q13627)
[5] = test system: KIT (human), P10721 [V559D/T670I]
KIT (human) = KIT (human) (UniProt P10721)
[6] = test system: EGFR (human), P00533 [P753S; 747-752 del]
CPK1 (P.falciparum) = test system: CPK1 (P.falciparum)
GRK1 (human) = GRK1 (human) (UniProt Q15835)
VRK2 (human) = VRK2 (human) (UniProt Q86Y07)
HIPK2 (human) = HIPK2 (human) (UniProt Q9H2X6)
YSK4 (human) = YSK4 (human) (UniProt Q56UN5)
[7] = test system: PIK3CA (human), P42336 [C420R]
CDK4 CCND3 (human) = CDK4 CCND3 (human) (UniProt P11802+P30281)
CRK2 (P.falciparum) = CRK2 (P.falciparum) (UniProt P61075)
[8] = test system: EGFR (human), P00533 [L861Q]
[9] = test system: ABL1 (human), P00519 [E255K]
[10] = test system: EGFR (human), P00533 [746-750 del]
CDK2 (human) = CDK2 (human) (UniProt P24941)

PIK3CA (human), P42336 [I800L], sequence (P42336 whole entry I800L, looked up): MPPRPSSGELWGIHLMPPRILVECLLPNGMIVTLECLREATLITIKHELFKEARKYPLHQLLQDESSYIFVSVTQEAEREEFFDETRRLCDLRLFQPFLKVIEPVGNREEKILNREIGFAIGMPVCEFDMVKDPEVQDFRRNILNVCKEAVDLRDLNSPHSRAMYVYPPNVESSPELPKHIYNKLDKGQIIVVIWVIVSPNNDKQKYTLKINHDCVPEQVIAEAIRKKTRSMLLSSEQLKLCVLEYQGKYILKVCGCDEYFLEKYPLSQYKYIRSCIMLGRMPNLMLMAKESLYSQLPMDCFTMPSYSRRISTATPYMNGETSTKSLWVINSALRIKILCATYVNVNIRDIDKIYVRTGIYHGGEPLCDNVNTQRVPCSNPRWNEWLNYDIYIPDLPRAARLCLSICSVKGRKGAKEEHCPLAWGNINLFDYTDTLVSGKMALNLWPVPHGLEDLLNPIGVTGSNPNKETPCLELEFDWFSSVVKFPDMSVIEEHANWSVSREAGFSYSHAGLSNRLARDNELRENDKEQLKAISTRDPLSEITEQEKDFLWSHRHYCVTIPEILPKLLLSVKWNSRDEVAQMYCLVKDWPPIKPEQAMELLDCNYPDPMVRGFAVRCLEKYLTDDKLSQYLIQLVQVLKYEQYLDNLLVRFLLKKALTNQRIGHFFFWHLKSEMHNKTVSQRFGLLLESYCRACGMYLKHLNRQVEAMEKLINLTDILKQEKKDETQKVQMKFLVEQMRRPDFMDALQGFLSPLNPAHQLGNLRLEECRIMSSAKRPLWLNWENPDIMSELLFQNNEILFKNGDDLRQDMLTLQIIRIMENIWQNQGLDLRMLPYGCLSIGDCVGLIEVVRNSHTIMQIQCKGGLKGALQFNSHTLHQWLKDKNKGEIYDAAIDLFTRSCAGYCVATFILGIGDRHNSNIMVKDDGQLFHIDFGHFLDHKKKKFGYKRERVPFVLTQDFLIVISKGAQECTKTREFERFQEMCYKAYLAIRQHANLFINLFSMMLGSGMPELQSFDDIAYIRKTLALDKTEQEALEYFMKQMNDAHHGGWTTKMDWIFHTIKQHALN
GRK1 (human), sequence (Q15835 whole entry, looked up): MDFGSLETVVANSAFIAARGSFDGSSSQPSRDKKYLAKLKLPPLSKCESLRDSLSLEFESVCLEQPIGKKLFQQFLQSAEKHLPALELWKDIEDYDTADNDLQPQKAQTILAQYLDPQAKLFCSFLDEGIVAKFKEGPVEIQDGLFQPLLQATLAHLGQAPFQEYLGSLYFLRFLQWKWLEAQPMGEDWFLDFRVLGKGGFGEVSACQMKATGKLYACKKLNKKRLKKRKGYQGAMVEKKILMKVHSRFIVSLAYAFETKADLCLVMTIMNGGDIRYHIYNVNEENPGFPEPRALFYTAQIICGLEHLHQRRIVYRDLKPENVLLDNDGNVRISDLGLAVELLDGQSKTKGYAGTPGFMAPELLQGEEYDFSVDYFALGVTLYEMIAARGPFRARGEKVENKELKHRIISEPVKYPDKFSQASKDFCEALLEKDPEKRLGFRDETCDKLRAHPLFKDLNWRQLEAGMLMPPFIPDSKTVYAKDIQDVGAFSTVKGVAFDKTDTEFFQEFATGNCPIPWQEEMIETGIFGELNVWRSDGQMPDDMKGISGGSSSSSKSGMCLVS
KIT (human), sequence (P10721 whole entry, looked up): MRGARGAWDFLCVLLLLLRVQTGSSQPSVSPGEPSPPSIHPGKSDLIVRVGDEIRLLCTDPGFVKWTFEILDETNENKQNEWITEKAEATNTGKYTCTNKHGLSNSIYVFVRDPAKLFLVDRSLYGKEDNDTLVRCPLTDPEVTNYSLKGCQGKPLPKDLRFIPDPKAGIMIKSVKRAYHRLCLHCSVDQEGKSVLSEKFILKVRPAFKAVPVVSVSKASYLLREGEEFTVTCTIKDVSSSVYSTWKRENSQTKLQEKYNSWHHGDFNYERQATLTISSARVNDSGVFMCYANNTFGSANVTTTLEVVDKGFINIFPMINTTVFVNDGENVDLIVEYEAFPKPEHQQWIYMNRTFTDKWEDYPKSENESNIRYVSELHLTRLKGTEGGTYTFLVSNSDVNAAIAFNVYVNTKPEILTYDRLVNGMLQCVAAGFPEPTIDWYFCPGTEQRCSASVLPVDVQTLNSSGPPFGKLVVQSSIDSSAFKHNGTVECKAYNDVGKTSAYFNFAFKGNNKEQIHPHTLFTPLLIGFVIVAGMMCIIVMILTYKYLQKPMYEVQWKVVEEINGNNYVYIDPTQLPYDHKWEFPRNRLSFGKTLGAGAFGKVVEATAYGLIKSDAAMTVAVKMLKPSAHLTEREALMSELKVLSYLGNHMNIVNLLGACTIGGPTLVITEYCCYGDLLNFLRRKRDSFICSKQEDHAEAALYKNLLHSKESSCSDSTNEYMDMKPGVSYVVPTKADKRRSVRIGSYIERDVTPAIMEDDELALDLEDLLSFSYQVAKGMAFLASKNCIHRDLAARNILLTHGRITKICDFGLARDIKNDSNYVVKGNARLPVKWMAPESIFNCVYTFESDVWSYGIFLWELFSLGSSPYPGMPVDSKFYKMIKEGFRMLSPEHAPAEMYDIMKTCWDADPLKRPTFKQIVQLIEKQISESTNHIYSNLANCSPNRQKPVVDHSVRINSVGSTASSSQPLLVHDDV
SGK3 (human), sequence (Q96BR1 whole entry, looked up): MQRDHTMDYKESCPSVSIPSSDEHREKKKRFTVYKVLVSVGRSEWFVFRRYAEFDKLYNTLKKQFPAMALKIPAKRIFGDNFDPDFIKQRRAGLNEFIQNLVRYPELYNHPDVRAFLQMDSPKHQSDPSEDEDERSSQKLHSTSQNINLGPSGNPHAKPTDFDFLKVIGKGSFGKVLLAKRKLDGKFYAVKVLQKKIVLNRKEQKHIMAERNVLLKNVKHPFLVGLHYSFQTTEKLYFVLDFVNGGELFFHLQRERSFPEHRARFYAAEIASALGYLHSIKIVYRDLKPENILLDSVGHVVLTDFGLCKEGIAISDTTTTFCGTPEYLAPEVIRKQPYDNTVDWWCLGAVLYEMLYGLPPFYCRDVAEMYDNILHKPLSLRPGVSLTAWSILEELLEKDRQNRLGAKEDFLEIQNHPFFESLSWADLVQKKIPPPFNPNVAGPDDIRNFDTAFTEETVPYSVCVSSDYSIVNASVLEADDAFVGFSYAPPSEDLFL
MAP3K13 (human), sequence (O43283 whole entry, looked up): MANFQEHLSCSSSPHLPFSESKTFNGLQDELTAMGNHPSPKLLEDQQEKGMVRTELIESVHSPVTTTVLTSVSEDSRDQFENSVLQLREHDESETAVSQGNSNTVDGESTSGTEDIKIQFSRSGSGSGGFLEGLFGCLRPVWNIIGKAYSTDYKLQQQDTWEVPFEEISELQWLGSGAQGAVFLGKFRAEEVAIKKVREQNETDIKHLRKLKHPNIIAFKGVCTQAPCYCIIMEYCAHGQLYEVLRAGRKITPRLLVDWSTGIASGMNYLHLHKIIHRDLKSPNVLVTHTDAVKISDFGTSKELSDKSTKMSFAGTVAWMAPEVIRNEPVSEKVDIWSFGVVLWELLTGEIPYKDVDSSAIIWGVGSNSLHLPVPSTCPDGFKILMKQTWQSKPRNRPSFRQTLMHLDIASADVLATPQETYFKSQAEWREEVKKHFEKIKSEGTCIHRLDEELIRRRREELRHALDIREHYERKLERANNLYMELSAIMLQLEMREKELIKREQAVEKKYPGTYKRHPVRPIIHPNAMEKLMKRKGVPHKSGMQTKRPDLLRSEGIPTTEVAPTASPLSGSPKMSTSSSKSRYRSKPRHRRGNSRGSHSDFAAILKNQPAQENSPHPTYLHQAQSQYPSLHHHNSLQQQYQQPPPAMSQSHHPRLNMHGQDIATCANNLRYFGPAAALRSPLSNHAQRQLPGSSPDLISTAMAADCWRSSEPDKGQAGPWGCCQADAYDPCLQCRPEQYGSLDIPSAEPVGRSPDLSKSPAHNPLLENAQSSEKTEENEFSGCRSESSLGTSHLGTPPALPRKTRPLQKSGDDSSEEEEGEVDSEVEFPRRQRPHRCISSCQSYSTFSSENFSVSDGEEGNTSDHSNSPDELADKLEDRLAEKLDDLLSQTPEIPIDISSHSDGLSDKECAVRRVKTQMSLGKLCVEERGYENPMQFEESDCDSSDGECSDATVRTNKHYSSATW
PIK3CA (human), P42336 [Q546K], sequence (P42336 whole entry Q546K, looked up): as the sequence (P42336 whole entry I800L, looked up) above, with Q546K, L800I counted along it
CRK2 (P.falciparum), sequence (P61075 whole entry, looked up): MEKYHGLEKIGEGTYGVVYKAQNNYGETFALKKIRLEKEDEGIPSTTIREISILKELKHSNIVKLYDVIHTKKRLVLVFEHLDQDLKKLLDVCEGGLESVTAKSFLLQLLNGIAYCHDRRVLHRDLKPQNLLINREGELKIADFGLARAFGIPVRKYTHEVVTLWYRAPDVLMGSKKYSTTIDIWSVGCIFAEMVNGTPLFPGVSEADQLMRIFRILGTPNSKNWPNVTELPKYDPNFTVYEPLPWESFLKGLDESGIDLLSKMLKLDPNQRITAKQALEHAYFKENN
PIK3CA (human), P42336 [H1047Y], sequence (P42336 whole entry H1047Y, looked up): as the sequence (P42336 whole entry I800L, looked up) above, with L800I, H1047Y counted along it
PRKCI (human), sequence (P41743 whole entry, looked up): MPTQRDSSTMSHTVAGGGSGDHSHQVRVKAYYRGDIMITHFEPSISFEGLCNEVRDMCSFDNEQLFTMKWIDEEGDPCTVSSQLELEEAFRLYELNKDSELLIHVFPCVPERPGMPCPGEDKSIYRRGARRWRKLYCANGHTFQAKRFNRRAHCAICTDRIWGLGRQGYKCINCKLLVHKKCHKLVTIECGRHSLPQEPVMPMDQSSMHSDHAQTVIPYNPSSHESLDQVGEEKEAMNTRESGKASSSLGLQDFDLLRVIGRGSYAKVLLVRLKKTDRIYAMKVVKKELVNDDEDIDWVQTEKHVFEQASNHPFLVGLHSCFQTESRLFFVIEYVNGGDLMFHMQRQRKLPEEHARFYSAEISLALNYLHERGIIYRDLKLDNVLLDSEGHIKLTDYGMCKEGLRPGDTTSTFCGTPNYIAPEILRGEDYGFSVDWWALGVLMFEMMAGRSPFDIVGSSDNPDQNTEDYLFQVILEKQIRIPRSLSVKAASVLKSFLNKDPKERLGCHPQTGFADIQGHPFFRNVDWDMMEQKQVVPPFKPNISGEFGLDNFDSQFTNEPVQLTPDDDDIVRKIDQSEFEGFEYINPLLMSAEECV

CCCS(=O)(=O)Nc1ccc(F)c(C(=O)c2c[nH]c3ncc(-c4ccc(Cl)cc4)cc23)c1F
kinase still bound, per cent of control (GRK4 (human)): 100% | kinase still bound, per cent of control (BRAF (human)): 0% | kinase still bound, per cent of control (MET (human)): 53% | kinase still bound, per cent of control (SIK3 (human)): 100% | kinase still bound, per cent of control (CDK13 (human)): 100% | kinase still bound, per cent of control [1]: 88% | kinase still bound, per cent of control (PLK2 (human)): 97% | kinase still bound, per cent of control [2]: 86% | kinase still bound, per cent of control (STK39 (human)): 100% | kinase still bound, per cent of control (MAP3K2 (human)): 100% | kinase still bound, per cent of control (NIM1 (human)): 100% | kinase still bound, per cent of control (PRKCI (human)): 100% | kinase still bound, per cent of control (IRAK4 (human)): 86% | kinase still bound, per cent of control (TAOK2 (human)): 53% | kinase still bound, per cent of control (MAP3K1 (human)): 91% | kinase still bound, per cent of control (MAP3K15 (human)): 100% | kinase still bound, per cent of control (MAP3K13 (human)): 100% | kinase still bound, per cent of control (PIK3C2G (human)): 62% | kinase still bound, per cent of control [3]: 50% | kinase still bound, per cent of control [4]: 93% | kinase still bound, per cent of control (SGK3 (human)): 71% | kinase still bound, per cent of control (EGFR (human)): 70% | kinase still bound, per cent of control (PIK3CG (human)): 19% | kinase still bound, per cent of control (DYRK1A (human)): 100% | kinase still bound, per cent of control [5]: 60% | kinase still bound, per cent of control (KIT (human)): 0.15% | kinase still bound, per cent of control [6]: 78% | kinase still bound, per cent of control (CPK1 (P.falciparum)): 0% | kinase still bound, per cent of control (GRK1 (human)): 100% | kinase still bound, per cent of control (VRK2 (human)): 100% | kinase still bound, per cent of control (HIPK2 (human)): 66% | kinase still bound, per cent of control (YSK4 (human)): 53% | kinase still bound, per cent of control [7]: 100% | kinase still bound, per cent of control (CDK4 CCND3 (human)): 82% | kinase still bound, per cent of control (CRK2 (P.falciparum)): 97%

Cc1ccc2nc(NCCN)c3ncc(C)n3c2c1
kinase still bound, per cent of control (GRK4 (human)): 100% | kinase still bound, per cent of control (BRAF (human)): 95% | kinase still bound, per cent of control (MET (human)): 100% | kinase still bound, per cent of control (SIK3 (human)): 100% | kinase still bound, per cent of control (CDK13 (human)): 4.7% | kinase still bound, per cent of control [1]: 26% | kinase still bound, per cent of control (PLK2 (human)): 100% | kinase still bound, per cent of control [2]: 38% | kinase still bound, per cent of control (STK39 (human)): 100% | kinase still bound, per cent of control (MAP3K2 (human)): 100% | kinase still bound, per cent of control (NIM1 (human)): 100% | kinase still bound, per cent of control (PRKCI (human)): 88% | kinase still bound, per cent of control (IRAK4 (human)): 100% | kinase still bound, per cent of control (TAOK2 (human)): 70% | kinase still bound, per cent of control (MAP3K1 (human)): 74% | kinase still bound, per cent of control (MAP3K15 (human)): 100% | kinase still bound, per cent of control [8]: 100% | kinase still bound, per cent of control (MAP3K13 (human)): 74% | kinase still bound, per cent of control (PIK3C2G (human)): 23% | kinase still bound, per cent of control [3]: 100% | kinase still bound, per cent of control [4]: 100% | kinase still bound, per cent of control (SGK3 (human)): 100% | kinase still bound, per cent of control (EGFR (human)): 100% | kinase still bound, per cent of control (PIK3CG (human)): 100% | kinase still bound, per cent of control (DYRK1A (human)): 39% | kinase still bound, per cent of control [5]: 39% | kinase still bound, per cent of control (KIT (human)): 37% | kinase still bound, per cent of control [6]: 100% | kinase still bound, per cent of control [9]: 87% | kinase still bound, per cent of control (CPK1 (P.falciparum)): 52% | kinase still bound, per cent of control (GRK1 (human)): 100% | kinase still bound, per cent of control (VRK2 (human)): 100% | kinase still bound, per cent of control (HIPK2 (human)): 58% | kinase still bound, per cent of control (YSK4 (human)): 16% | kinase still bound, per cent of control [7]: 52% | kinase still bound, per cent of control [10]: 100% | kinase still bound, per cent of control (CDK4 CCND3 (human)): 75% | kinase still bound, per cent of control (CRK2 (P.falciparum)): 100%

O=C(NOC[C@H](O)CO)c1ccc(F)c(F)c1Nc1ccc(I)cc1F
kinase still bound, per cent of control (GRK4 (human)): 100% | kinase still bound, per cent of control (BRAF (human)): 98% | kinase still bound, per cent of control (SIK3 (human)): 52% | kinase still bound, per cent of control (CDK13 (human)): 84% | kinase still bound, per cent of control [1]: 57% | kinase still bound, per cent of control (PLK2 (human)): 100% | kinase still bound, per cent of control [2]: 41% | kinase still bound, per cent of control (STK39 (human)): 96% | kinase still bound, per cent of control (MAP3K2 (human)): 100% | kinase still bound, per cent of control (NIM1 (human)): 100% | kinase still bound, per cent of control (PRKCI (human)): 70% | kinase still bound, per cent of control (IRAK4 (human)): 100% | kinase still bound, per cent of control (TAOK2 (human)): 100% | kinase still bound, per cent of control (MAP3K1 (human)): 54% | kinase still bound, per cent of control (MAP3K15 (human)): 100% | kinase still bound, per cent of control (CDK2 (human)): 91% | kinase still bound, per cent of control (MAP3K13 (human)): 86% | kinase still bound, per cent of control (PIK3C2G (human)): 48% | kinase still bound, per cent of control [4]: 33% | kinase still bound, per cent of control (SGK3 (human)): 89% | kinase still bound, per cent of control (PIK3CG (human)): 88% | kinase still bound, per cent of control (DYRK1A (human)): 100% | kinase still bound, per cent of control [5]: 90% | kinase still bound, per cent of control (KIT (human)): 92% | kinase still bound, per cent of control [6]: 59% | kinase still bound, per cent of control [9]: 100% | kinase still bound, per cent of control (CPK1 (P.falciparum)): 78% | kinase still bound, per cent of control (GRK1 (human)): 100% | kinase still bound, per cent of control (VRK2 (human)): 100% | kinase still bound, per cent of control (YSK4 (human)): 100% | kinase still bound, per cent of control [7]: 50% | kinase still bound, per cent of control (CDK4 CCND3 (human)): 84% | kinase still bound, per cent of control (CRK2 (P.falciparum)): 100%
